In test [1] the target is T1, glycine binding site of the NMDA receptor channel (Rattus norvegicus, UniProt P35439).
T1 construct: from tissue; host or cells: rat brain cortex and hippocampus membrane homogenate
In words: Receptor binding, displacement of (3H)-MDL 105.519 on rat cerebral membrane homogenates. To be noted: 1 nmol/l (3H)-MDL 105.519.

The next test relates to AMPA receptor channels. In words: AMPA-induced ionic currents in RNA-injected Xenopus oocytes. To be noted: 10 μmol/l compound; AMPA 100 μmol/l; n = 2. It is filed as cell-based, rat. As for the experimental part: Xenopus oocytes from stages V and VI (Dumont, J. N., Journal of Morphology, Vol. 136, 1972) were micro-injected with total RNA from brain tissue of adult rats (100-130 ng/cell) and kept in the culture medium (composition in mmol/l: 88.0 NaCl, 1.0 KCl, 1.5 CaCl2, 0.8 MgSO4, 2.4 NaHCO3, 5 HEPES, 100 IU/ml penicillin, 100 μg/ml streptomycin, pH 7.4) for up to 10 days at 20° C. Transmembranous ionic currents were recorded as in conventional two-electrode voltage clamp technology with a holding potential of −70 mV (P. Bloms-Funke P, M. Madeja, U. Muβhoff, E.-J. Speckman, Neuroscience Letters, Vol. 205, p. 115, 1996). The OTC interface and the Cellworks Software were used for recording data and controlling the test apparatus (npi, FRG). […] To test the effects of substances brought about via the glycine B-binding site of the NMDA receptor channel, the glycine dosage/response curve was recorded with and without the respective compound according to the invention. […] The data was analyzed using Igor-Pro software (Version 3.1, WaveMetrics USA). […] The significance for unpaired measured quantities is determined by the Mann-Whitney U-Test and for paired measured quantities by the Wilcoxon test (Sysstat. SPSS Inc., USA). EC50 values are calculated according to the following formula: […]

Consider `O=C(O)C1Nc2cc(Cl)cc(Cl)c2C2C=CCC12` (stereo not drawn) [Example 2, 7,9-dichloro-3a,4,5,9b-tetrahydro-3H-cyclopenta[c]quinoline-4-carboxylic Acid], for which the inhibition at 10 µM in test [1] (10 μmol/l test substance, read-out: Displacement (%, 10 μmol/l) of radioactive ligand from specific binding) is 100%. Moreover, the Ki in test [1] (mean from three independent experiments, from IC50 by Cheng-Prussoff equation) was determined as 300 nM. In addition, the “AMPA-induced ionic currents Inhibition with 10 μmol/l of compounds according to the invention” value with AMPA receptor channels is 5.4% (n = 2).

The record behind these values is US6699877B2 (Gruenenthal GmbH, priority 2000, dated 2004).
